Assay results as given in patent US6184217A (Cephalon, Inc., priority 1997, dated 2001).

Assays:
[1] = tested on: striatal tyrosine hydroxylase (dopaminergic neurons); experiment: Striatal tyrosine hydroxylase activity in low-dose MPTP-treated mice; assay type: in vivo, C57 black mice; details: MPTP 20 mg/kg, 7 days
Procedure: Experiments were conducted using Compound A in MPTP-lesioned dopaminergic neurons in mice (MPTP mouse model). A single s.c. dose of MPTP (20 mg/kg) provided to C57 black mice produced approximately 60% loss of striatal tyrosine hydroxylase activity. Administration of Compound A, at daily doses ranging from 0.01 to 10 mg/kg (s.c.), to such MPTP-treated mice reduced the loss of striatal tyrosine hydroxylase activity.
Mice were treated with MPTP (20 mg/kg; s.c.) 4-6 hours after the first Compound A injection. Compound A was then injected every day until the end of the experiment, which was 7 days in duration. Striata were assessed for tyrosine hydroxylase enzyme activity. Asterisk indicates statistically significant difference (p<0.05) from MPTP-Vehicle treated animals.

[2] = tested on: nucleus basalis magnocellularis; experiment: T-maze rewarded alternation task after bilateral nbm lesion; assay type: in vivo, Sprague-Dawley rats; details: 0.1 mg/kg s.c. every other day until 12 days post-lesion; tested 10-12 weeks later
Procedure: Adult male Sprague-Dawley rats were first trained to alternate responses in a standard rewarded-alternation T-maze task (Hepler et al., J. Neurosci., 5:866-873, 1985). The animals then received bilateral lesions of the nucleus basalis magnocellularis, to impair performance in T-maze tasks (e.g., Salamone et al., Behav. Brain Res., 13:63-70, 1984). Beginning 18 hours after the lesion, the animals received Compound A via subcutaneous injection (0.1 mg/kg) every other day until 12 days post-lesion. Twenty-four hours following the last injection all animals were placed in the T-maze once a day, until their alternation performance reached pre-operative levels, which took anywhere from 3 to 10 days. After reaching criterion, the animals were not further tested for 8-10 weeks. At that point the animals were again placed in the T-maze, once a day until they reached pre-operative performance.

[3] = tested on: glutamatergic neurons in layer 2 of the entorhinal cortex; experiment: NMDA entorhinal cortex lesion model; assay type: in vivo, rats; details: 1 mg/kg s.c. daily, p<0.05
From the text: Glutamate-containing neurons in layer 2 of the entorhinal cortex project to the molecular layer of the dentate gyrus, where they form synapses on the dendrites of the dentate gyrus granule cells. A lesion can be created in layer 2 of entorhinal cortex by stereotaxic injection of the excitotoxin N-methyl-D-asparate (NMDA). Under sodium pentobarbitol anesthesia, rats received an injection of NMDA (15 nmols/site) at each of 2 sites in the entorhinal cortex. Two weeks later, the rats were sacrificed and perfused with a 50 mM sodium sulfide solution. The brains were removed, sectioned in the horizontal plane at a thickness of 40 μm, and stained with either Cresyl violet or Timm'stain. The survival of neurons in layer 2 of entorhinal cortex was assessed in Cresyl violet stained sections, while the integrity of their axon terminals in the molecular layer of the dentate gyrus was measured in alternate sections stained with Timm's stain.
Injection of NMDA destroyed 62±11% (s.e.m.) of entorhinal layer 2 and decreased the area of the dentate gyrus middle molecular layer by 19±6% (s.e.m.). […] Thus, Compound A protected neurons in the entorhinal cortex from an excitotoxic lesion and maintained the integrity of their axon terminals in the dentate gyrus.

protein kinase C = experiment: Protein kinase C inhibition in vitro; assay type: biochemical
[4] = tested on: IL-1β production (THP-1 cells); experiment: Inhibition of LPS-induced IL-1β production in THP-1 cells; assay type: cell-based; details: Homo sapiens, LPS 2 ug/ml
Procedure: Stock solutions consisting of 4 mM Compound A, in 100% DMSO, were stored at 4° C. Cell culture medium RPMI 1640 (Media Tech, Herndon, Va.) and fetal bovine serum (Hyclone, Logan, Utah) comprised the test medium. Lipopolysaccharide (LPS) (Sigma, St. Louis, Mo.) from E. coli serotype 0.111:B4, extracted with trichloroacetic acid, was used. Stock solutions of LPS were prepared and stored at 4° C. in phosphate-buffered saline (PBS). ELISA kits for assaying tumor necrosis factor alpha (TNF-α) and IL-1β were purchased from Boehringer-Mannheim, (Indianapolis, Ind.) and were used according to the manufacturer's instructions. THP-1 cells, a human monocyte-derived cell line, was obtained from the American Type Culture Collection (ATCC TIB 202). Cells were grown in RPMI 1640 containing 10% fetal bovine serum (medium) in a humidified atmosphere of 5% CO2 :95% air at 37° C. Experiments were performed in 24 well culture plates (Nunc) with 5×10^5 THP-1 cells in 1 ml of medium. Cells were incubated with LPS at 2 ug/ml to induce TNF-α. After a 3-hr incubation period, the cells and medium were centrifuged at 1,000×g for 5 min, and the resulting supernatant fluid was either assayed immediately for TNF-α or stored at -70° C. and assayed later. Media samples were measured for content of TNF-α and IL-1β by Elisa assays. […]

monoamine oxidase-B = monoamine oxidase-B (Homo sapiens, UniProt P27338); experiment: Monoamine oxidase-B inhibition in vitro; details: FIG. 2
Chain of monoamine oxidase-B (P27338 whole entry): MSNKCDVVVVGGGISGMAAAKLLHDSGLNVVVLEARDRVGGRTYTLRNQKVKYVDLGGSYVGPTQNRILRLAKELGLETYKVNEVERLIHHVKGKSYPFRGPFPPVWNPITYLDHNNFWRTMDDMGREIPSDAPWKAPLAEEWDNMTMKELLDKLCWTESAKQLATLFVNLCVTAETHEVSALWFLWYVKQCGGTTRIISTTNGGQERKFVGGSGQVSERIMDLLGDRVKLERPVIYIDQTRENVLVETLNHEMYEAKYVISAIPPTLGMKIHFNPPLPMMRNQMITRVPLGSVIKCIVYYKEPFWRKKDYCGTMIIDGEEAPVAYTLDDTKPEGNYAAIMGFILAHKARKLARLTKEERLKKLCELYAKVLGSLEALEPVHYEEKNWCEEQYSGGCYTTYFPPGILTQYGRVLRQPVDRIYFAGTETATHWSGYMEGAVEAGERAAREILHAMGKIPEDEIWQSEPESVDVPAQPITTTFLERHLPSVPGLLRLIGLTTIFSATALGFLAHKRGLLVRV

CCSCc1ccc2c(c1)c1c3c(c4c5cc(CSCC)ccc5n5c4c1n2C1CC(O)(C(=O)OC)C5(C)O1)CNC3=O (centres unmarked) [Compound A]
% of Unlesioned Control ([1]; 0.01 mg/kg s.c. daily): 41 ± 5.3%
Striatal TH Activity (± SEM) ([1]; 0.01 mg/kg s.c. daily): 7.76 ± 1.23
% of Unlesioned Control ([1]; 0.03 mg/kg s.c. daily): 55 ± 3.9%
Striatal TH Activity (± SEM) ([1]; 0.03 mg/kg s.c. daily): 10.48 ± 0.92
% of Unlesioned Control ([1]; 0.10 mg/kg s.c. daily): 60 ± 6.5%
Striatal TH Activity (± SEM) ([1]; 0.10 mg/kg s.c. daily): 11.51 ± 0.80
% of Unlesioned Control ([1]; 0.30 mg/kg s.c. daily): 62 ± 5.0%
Striatal TH Activity (± SEM) ([1]; 0.30 mg/kg s.c. daily): 11.89 ± 1.34
% of Unlesioned Control ([1]; 1.0 mg/kg s.c. daily): 54 ± 7.0%
Striatal TH Activity (± SEM) ([1]; 1.0 mg/kg s.c. daily): 10.39 ± 1.39
% of Unlesioned Control ([1]; 3.0 mg/kg s.c. daily): 51 ± 5.8%
Striatal TH Activity (± SEM) ([1]; 3.0 mg/kg s.c. daily): 9.66 ± 1.10
% of Unlesioned Control ([1]; 10.0 mg/kg s.c. daily): 51 ± 3.7%
Striatal TH Activity (± SEM) ([1]; 10.0 mg/kg s.c. daily): 9.77 ± 0.70
total number of errors in T-maze task compared to normals [2]: not different from normals
decrease in area of dentate gyrus middle molecular layer ([3]; NMDA alone 19±6% decrease): prevented the decrease in area of the middle molecular layer
loss of entorhinal layer 2 neurons ([3]; s.e.m., NMDA alone 62±11%): 22±10%
protein kinase C inhibition at concentrations inhibiting TNF-α and IL-1β production (protein kinase C; at 139 nM and 261 nM): inactive
fold less active than K-252a against protein kinase C (protein kinase C; compared with K-252a): 570 fold
IC50 (protein kinase C; in vitro): 16 µM
inhibitory activity against PKC (protein kinase C; summary statement): little or no inhibitory activity against PKC
IC50 [4]: 0.261 µM
monoamine oxidase-B inhibition (monoamine oxidase-B): not a monoamine oxidase-B inhibitor
